Assay: xn = mol fraction of the nth substance listed

CCCCO + O
Conditions	viscosity [mPa·s]
293.15 K, 100 kPa, x1 = 0.02	1.378
293.15 K, 100 kPa, x1 = 0.5485	3.301
293.15 K, 101 kPa, x1 = 0.005	1.077
293.15 K, 101 kPa, x1 = 0.01	1.155
293.15 K, 101 kPa, x1 = 0.015	1.232
298.15 K, 101 kPa, x1 = 0.005	0.947
298.15 K, 101 kPa, x1 = 0.01	1.003
298.15 K, 101 kPa, x1 = 0.015	1.058
298.15 K, 101 kPa, x1 = 0.69	2.598
298.15 K, 101 kPa, x2 = 0.0398	2.622
298.15 K, 101 kPa, x2 = 0.0784	2.618
298.15 K, 101 kPa, x2 = 0.1202	2.619
298.15 K, 101 kPa, x2 = 0.1424	2.62
298.15 K, 101 kPa, x2 = 0.163	2.626
298.15 K, 101 kPa, x2 = 0.1955	2.634
298.15 K, 101 kPa, x2 = 0.2265	2.647
298.15 K, 101 kPa, x2 = 0.2719	2.679
298.15 K, 101.3 kPa, x1 = 0.003	0.9421
298.15 K, 101.3 kPa, x1 = 0.006	0.994
298.15 K, 101.3 kPa, x1 = 0.009	1.047
298.15 K, 101.3 kPa, x1 = 0.012	1.1
298.15 K, 101.33 kPa, x1 = 0.0017	0.921
298.15 K, 101.33 kPa, x1 = 0.00297	0.941
298.15 K, 101.33 kPa, x1 = 0.00364	0.949
298.15 K, 101.33 kPa, x1 = 0.00491	0.97
298.15 K, 101.33 kPa, x1 = 0.00559	0.981
298.15 K, 101.33 kPa, x1 = 0.0081	1.021
298.15 K, 101.33 kPa, x1 = 0.00972	1.048
298.15 K, 101.33 kPa, x1 = 0.0124	1.096
298.15 K, 101.33 kPa, x1 = 0.0136	1.114
298.15 K, 101.33 kPa, x1 = 0.0151	1.141
298.15 K, 101.33 kPa, x1 = 0.0166	1.166
298.15 K, 101.33 kPa, x1 = 0.0179	1.185
303.15 K, 101 kPa, x1 = 0.005	0.842
303.15 K, 101 kPa, x1 = 0.01	0.883
303.15 K, 101 kPa, x1 = 0.015	0.93
303.15 K, 101.33 kPa, x1 = 0.013	0.968
303.15 K, 101.33 kPa, x2 = 0.095	2.236
303.15 K, 101.33 kPa, x2 = 0.2526	2.272
303.15 K, 101.33 kPa, x2 = 0.4385	2.42
308.15 K, 101 kPa, x1 = 0.005	0.758
308.15 K, 101 kPa, x1 = 0.01	0.794
308.15 K, 101 kPa, x1 = 0.015	0.841
308.15 K, 101 kPa, x2 = 0.0398	2.032
308.15 K, 101 kPa, x2 = 0.0784	2.022
308.15 K, 101 kPa, x2 = 0.1202	2.017
308.15 K, 101 kPa, x2 = 0.1424	2.016
308.15 K, 101 kPa, x2 = 0.163	2.017
308.15 K, 101 kPa, x2 = 0.1955	2.024
308.15 K, 101 kPa, x2 = 0.2265	2.027
313.15 K, 101 kPa, x1 = 0.005	0.682
313.15 K, 101 kPa, x1 = 0.01	0.712
313.15 K, 101 kPa, x1 = 0.015	0.746
318.15 K, 101 kPa, x1 = 0.005	0.62
318.15 K, 101 kPa, x1 = 0.01	0.638
318.15 K, 101 kPa, x1 = 0.015	0.662
318.15 K, 101 kPa, x2 = 0.0412	1.597
318.15 K, 101 kPa, x2 = 0.0733	1.588
318.15 K, 101 kPa, x2 = 0.1101	1.581
318.15 K, 101 kPa, x2 = 0.1458	1.576
318.15 K, 101 kPa, x2 = 0.1755	1.571
318.15 K, 101 kPa, x2 = 0.2129	1.578
323.15 K, 100 kPa, x1 = 0.02	0.668
323.15 K, 100 kPa, x1 = 0.5485	1.447
323.15 K, 101 kPa, x1 = 0.005	0.566
323.15 K, 101 kPa, x1 = 0.01	0.58
323.15 K, 101 kPa, x1 = 0.015	0.602

O.OC[C@H]1O[C@H](O[C@H]2[C@H](O)[C@@H](O)[C@H](O)O[C@@H]2CO)[C@H](O)[C@@H](O)[C@@H]1O + O
viscosity [mPa·s]
Conditions	x1 = 0.000899	x1 = 0.001221	x1 = 0.001607	x1 = 0.001874	x1 = 0.002333	x1 = 0.002646	x1 = 0.006
298.15 K, 101 kPa	0.936	0.956	0.974	0.988	1.012	1.026	–
308.15 K, 101 kPa	0.756	0.77	0.785	0.795	0.815	0.825	–
310 K, 101.3 kPa	–	–	–	–	–	–	1.09
318.15 K, 101 kPa	0.626	0.636	0.649	0.657	0.671	0.681	–

Cc1cccc(N)c1 + c1ccccc1
303.15 K, 101.33 kPa
Conditions	viscosity [mPa·s]
x1 = 0.196	0.695
x1 = 0.405	0.87
x1 = 0.598	1.15
x1 = 0.795	1.54

CCCCCCCCCCCCOC(C)=O + CCCCCC
303.15 K, 101.3 kPa
Conditions	viscosity [mPa·s]
x1 = 0.1919	0.5038
x1 = 0.3182	0.7197
x1 = 0.4783	1.079
x1 = 0.522	1.2
x1 = 0.748	1.958

O=S(=O)([O-])[O-].O=S(=O)([O-])[O-].O=S(=O)([O-])[O-].[Al+3].[Al+3] + O
viscosity [mPa·s], 101 kPa
Conditions	298.15 K	323.15 K
x1 = 0.0016	1.12	0.597
x1 = 0.00272	–	0.734
x1 = 0.00291	–	0.743
x1 = 0.0032	1.36	0.695
x1 = 0.00384	–	0.839
x1 = 0.00482	–	0.96
x1 = 0.0053	1.93	0.925
x1 = 0.005932	–	1.074
x1 = 0.0071	2.44	1.15
x1 = 0.007109	–	1.242
x1 = 0.008241	–	1.431
x1 = 0.0087	3.17	1.44
x1 = 0.009379	–	1.686
x1 = 0.0105	4.21	1.82
x1 = 0.0106	–	1.989
x1 = 0.01197	–	2.398
x1 = 0.0123	5.95	2.41
x1 = 0.01327	–	2.919
x1 = 0.0145	8.96	3.43
x1 = 0.0147	–	3.571
x1 = 0.0154	10.5	3.96
x1 = 0.01608	–	4.31
x1 = 0.0161	11.8	4.33
x1 = 0.017	14.4	5.17
x1 = 0.01732	–	4.975
x1 = 0.0184	18	6.12
x1 = 0.01889	–	6.121
